Read-outs that look alike come from different tables or passages of the source.
Tests used:
[1] = target: MINK1/MAP4K6 (Homo sapiens (Human), UniProt Q8N4C8); assay: Kinase selectivity panel: MINK1/MAP4K6; format: biochemical; conditions: read-out: pIC50 MINK1/MAP4K6 (converted)
Text: (§1) Compounds of the present invention were screened for their inhibitory activity against MAP4K4, versus selected off-target hits found with early members of this chemical series. MAP4K4 kinase activity was monitored using the CisBio HTRF Transcreener ADP assay, acompetitive immunoassay with a reproducible Z′>0.6. In the detection step, endogenous ADP and d2-labeled ADP compete for binding an anti-ADP monoclonal antibody labelled with Eu^3+ cryptate. A ratiometric fluorescent read-out is used at 665 and 620 nm. […] Assays were run in Greiner low volume plates with a final reaction volume of 10 μl. The MAP4K4 inhibition data are provided in Table 33 below for selected compounds of the present invention. The data has been categorised based on the IC50 value of the compound as “A”, “B” or “C”.
(§2) The data in Table 34 also provides the fold selectivity of the two compounds in favour of MAP4K4 over the tested kinase. The fold selectivity is indicated in parenthesis.

[2] = target: GCK/MAP4K2 (Homo sapiens (Human), UniProt Q12851); assay: Kinase selectivity panel: GCK/MAP4K2; format: biochemical; conditions: for IC50: read-out: pIC50 GCK/MAP4K2 (converted)
Text: as §1, §2

[3] = target: GSK3β (Homo sapiens (Human), UniProt P49841); assay: Kinase selectivity panel: GSK3β; format: biochemical; conditions: for IC50: read-out: pIC50 GSK3β (converted)
Text: as §1, §2

[4] = target: ABL1 (Homo sapiens (Human), UniProt P00519); assay: Kinase selectivity panel: ABL1; format: biochemical; conditions: for IC50: read-out: pIC50 ABL1 (converted)
Text: as §1, §2

[5] = target: human MAP4K4 kinase domain (Homo sapiens (Human), UniProt O95819); assay: MAP4K4 kinase activity, CisBio HTRF Transcreener ADP assay; format: biochemical
Text: as §1

[6] = target: TNIK/MAP4K7 (Homo sapiens (Human), UniProt Q9UKE5); assay: Kinase selectivity panel: TNIK/MAP4K7; format: biochemical; conditions: read-out: pIC50 TNIK/MAP4K7 (converted)
Text: as §1, §2

[7] = target: GLK/MAP4K3 (Homo sapiens (Human), UniProt Q8IVH8); assay: Kinase selectivity panel: GLK/MAP4K3; format: biochemical; conditions: for IC50: read-out: pIC50 GLK/MAP4K3 (converted)
Text: as §1, §2

[8] = target: Aurora B (Homo sapiens (Human), UniProt Q96GD4); assay: Kinase selectivity panel: Aurora B; format: biochemical; conditions: for IC50: read-out: pIC50 Aurora B (converted)
Text: as §1, §2

[9] = target: KHS/MAP4K5 (Homo sapiens (Human), UniProt Q9Y4K4); assay: Kinase selectivity panel: KHS/MAP4K5; format: biochemical; conditions: for IC50: read-out: pIC50 KHS/MAP4K5 (converted)
Text: as §1, §2

[10] = target: FLT3 (Homo sapiens (Human), UniProt P36888); assay: Kinase selectivity panel: FLT3; format: biochemical; conditions: for IC50: read-out: pIC50 FLT3 (converted)
Text: as §1, §2

[11] = target: MLK1/MAP3K9 (Homo sapiens (Human), UniProt P80192); assay: Kinase selectivity panel: MLK1/MAP3K9; format: biochemical; conditions: for IC50: read-out: pIC50 MLK1/MAP3K9 (converted)
Text: as §1, §2

[12] = test system: VEGFR; assay: Kinase selectivity panel: VEGFR; format: biochemical
Protocol: In the detection step, endogenous ADP and d2-labeled ADP compete for binding an anti-ADP monoclonal antibody labelled with Eu^3+ cryptate. […] Assays were run in Greiner low volume plates with a final reaction volume of 10 μl.
The fold selectivity is indicated in parenthesis.

[13] = test system: CorV.4U cardiomyocytes (hiPSC-CMs); assay: Protection of CorV.4U cardiomyocytes from H2O2 or menadione (luminescent cell viability assay, human cardiac troponin assay); format: cell-based; conditions: Homo sapiens, Cardiomyocyte; read-out: EC50, protection of human cardiomyocytes
Text: To substantiate the hypothesis that pharmacological inhibition of MAP4K4 would confer resistance to cell death in human cardiomyocytes, cytoprotection was next assessed using hiPSC-CMs.

[14] = target: MLK3/MAP3K11 (Homo sapiens (Human), UniProt Q16584); assay: Kinase selectivity panel: MLK3/MAP3K11; format: biochemical
Text: as §1, §2

[15] = ATP at Km (10 μM), 0.5 nM kinase domain, 2 h, read-out: MAP4K4
[16] = read-out: pIC50 MAP4K4 (converted)

Chain of FLT3 (P36888 27-993, species assumed): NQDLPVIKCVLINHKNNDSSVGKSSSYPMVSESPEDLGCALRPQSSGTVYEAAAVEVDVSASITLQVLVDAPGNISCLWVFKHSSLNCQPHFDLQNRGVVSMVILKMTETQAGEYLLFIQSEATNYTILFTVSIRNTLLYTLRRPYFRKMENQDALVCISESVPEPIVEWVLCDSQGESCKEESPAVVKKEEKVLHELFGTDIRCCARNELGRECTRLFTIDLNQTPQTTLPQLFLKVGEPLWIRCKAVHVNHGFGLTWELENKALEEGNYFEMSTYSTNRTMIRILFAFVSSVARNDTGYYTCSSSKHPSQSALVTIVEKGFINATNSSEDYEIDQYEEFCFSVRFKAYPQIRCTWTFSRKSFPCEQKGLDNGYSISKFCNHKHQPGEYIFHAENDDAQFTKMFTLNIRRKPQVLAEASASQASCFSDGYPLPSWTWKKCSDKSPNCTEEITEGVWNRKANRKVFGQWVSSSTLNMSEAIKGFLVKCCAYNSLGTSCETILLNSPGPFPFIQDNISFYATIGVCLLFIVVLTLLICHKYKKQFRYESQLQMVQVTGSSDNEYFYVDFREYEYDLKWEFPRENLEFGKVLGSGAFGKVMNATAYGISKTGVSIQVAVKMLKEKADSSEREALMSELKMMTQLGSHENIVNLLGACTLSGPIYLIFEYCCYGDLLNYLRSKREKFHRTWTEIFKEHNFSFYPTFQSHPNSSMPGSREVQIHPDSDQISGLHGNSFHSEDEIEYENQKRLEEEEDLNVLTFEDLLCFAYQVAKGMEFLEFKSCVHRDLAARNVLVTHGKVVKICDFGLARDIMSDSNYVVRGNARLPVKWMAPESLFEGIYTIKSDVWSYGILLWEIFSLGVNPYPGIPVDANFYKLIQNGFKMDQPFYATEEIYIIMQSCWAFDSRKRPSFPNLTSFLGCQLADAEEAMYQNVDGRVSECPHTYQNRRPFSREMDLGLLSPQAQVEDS
Chain of Aurora B (Q96GD4 whole entry): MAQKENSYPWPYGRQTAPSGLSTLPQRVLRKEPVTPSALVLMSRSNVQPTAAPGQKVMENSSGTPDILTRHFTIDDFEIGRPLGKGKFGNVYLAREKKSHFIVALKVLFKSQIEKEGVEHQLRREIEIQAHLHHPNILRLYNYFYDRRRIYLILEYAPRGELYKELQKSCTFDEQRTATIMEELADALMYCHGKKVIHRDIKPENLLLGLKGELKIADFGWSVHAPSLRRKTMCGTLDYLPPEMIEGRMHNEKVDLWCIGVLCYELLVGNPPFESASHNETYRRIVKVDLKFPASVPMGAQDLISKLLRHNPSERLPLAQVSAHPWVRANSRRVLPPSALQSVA
Chain of KHS/MAP4K5 (Q9Y4K4 whole entry): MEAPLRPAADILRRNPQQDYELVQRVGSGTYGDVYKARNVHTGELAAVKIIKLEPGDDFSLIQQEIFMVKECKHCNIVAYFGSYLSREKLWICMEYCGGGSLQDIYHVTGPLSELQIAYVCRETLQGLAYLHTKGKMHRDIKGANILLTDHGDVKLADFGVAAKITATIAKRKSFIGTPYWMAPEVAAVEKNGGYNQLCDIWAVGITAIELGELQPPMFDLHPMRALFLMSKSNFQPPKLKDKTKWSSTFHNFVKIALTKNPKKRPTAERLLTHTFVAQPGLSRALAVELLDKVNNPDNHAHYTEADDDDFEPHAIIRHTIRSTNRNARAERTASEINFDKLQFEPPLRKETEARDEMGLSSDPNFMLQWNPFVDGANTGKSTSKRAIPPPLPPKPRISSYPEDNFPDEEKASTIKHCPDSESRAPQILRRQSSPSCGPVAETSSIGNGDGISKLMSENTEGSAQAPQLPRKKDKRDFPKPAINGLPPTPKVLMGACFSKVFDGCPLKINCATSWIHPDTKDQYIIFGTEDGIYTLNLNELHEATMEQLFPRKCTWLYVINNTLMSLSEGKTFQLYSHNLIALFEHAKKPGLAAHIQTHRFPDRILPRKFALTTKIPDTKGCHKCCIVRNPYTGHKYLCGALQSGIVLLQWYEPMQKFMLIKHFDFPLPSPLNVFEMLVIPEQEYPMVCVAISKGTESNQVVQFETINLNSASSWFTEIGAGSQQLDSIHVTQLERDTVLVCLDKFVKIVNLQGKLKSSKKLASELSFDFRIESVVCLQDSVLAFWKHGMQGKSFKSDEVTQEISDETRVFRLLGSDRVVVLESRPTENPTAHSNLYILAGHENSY
Chain of GSK3β (P49841 whole entry, species assumed): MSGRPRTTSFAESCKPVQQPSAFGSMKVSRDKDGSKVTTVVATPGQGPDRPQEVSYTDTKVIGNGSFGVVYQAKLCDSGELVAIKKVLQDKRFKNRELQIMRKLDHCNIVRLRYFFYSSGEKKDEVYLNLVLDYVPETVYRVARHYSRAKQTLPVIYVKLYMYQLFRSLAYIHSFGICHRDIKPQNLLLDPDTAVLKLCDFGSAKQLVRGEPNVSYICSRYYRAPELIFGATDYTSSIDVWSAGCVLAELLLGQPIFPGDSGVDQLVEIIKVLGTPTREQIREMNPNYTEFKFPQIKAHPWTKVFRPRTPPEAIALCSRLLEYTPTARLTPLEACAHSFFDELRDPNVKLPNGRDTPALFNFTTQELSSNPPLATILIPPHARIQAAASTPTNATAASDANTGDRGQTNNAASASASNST
Chain of MLK1/MAP3K9 (P80192 whole entry): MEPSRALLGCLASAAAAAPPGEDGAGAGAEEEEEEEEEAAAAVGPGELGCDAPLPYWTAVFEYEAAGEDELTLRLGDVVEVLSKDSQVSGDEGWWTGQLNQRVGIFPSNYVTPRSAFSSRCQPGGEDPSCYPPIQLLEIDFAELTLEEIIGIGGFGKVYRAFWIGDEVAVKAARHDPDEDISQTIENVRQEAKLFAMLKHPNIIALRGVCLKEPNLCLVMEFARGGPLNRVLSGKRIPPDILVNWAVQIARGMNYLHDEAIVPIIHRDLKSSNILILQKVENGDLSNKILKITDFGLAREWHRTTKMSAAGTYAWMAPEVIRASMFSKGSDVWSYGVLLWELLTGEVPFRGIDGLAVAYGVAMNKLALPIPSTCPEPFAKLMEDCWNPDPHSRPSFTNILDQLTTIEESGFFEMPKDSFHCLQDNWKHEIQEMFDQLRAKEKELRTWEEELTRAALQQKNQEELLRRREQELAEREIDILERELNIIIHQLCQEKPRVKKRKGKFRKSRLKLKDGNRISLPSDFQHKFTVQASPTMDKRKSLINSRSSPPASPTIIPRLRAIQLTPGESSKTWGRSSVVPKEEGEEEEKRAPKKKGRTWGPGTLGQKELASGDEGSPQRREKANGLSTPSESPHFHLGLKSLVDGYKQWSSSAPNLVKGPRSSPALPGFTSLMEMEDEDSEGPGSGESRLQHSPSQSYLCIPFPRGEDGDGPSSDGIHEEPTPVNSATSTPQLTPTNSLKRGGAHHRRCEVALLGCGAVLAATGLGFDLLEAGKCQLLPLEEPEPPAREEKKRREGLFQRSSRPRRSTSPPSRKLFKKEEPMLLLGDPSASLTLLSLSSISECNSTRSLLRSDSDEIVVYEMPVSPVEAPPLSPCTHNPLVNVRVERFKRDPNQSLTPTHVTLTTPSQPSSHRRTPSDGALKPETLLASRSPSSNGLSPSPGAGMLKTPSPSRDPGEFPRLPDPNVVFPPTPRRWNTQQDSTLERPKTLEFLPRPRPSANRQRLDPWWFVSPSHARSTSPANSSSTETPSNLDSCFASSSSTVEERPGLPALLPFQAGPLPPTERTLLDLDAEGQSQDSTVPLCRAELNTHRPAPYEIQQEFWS
Chain of human MAP4K4 kinase domain (O95819 25-289): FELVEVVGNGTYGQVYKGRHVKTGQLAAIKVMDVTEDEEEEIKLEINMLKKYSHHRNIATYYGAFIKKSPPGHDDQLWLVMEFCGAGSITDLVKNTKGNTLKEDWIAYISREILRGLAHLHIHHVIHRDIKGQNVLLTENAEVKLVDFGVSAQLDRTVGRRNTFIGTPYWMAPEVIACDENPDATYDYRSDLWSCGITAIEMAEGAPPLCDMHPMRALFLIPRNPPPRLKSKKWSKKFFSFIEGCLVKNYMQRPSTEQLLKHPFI
Chain of GLK/MAP4K3 (Q8IVH8 whole entry): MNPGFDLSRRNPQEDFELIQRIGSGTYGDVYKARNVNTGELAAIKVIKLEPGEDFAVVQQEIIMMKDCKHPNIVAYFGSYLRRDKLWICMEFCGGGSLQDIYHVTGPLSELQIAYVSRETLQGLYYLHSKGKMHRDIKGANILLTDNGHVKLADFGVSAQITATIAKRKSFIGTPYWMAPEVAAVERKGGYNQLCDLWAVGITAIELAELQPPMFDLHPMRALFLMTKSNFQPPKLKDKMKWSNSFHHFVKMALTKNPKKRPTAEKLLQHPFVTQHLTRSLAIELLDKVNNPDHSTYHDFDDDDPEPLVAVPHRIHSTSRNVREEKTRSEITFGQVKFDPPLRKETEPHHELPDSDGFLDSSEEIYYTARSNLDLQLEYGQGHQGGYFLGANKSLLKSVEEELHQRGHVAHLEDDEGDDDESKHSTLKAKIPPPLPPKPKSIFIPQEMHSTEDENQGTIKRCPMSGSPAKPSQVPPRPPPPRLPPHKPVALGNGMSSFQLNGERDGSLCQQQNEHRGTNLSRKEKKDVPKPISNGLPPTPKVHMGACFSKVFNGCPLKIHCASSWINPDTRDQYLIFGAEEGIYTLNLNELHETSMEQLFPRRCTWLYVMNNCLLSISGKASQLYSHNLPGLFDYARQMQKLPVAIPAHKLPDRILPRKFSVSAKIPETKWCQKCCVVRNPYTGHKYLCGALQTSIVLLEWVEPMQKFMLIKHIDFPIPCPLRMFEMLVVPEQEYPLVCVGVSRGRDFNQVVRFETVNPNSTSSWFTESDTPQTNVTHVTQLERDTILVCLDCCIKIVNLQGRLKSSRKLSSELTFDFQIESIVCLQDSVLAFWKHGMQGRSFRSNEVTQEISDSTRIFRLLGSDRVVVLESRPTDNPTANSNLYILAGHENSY

O=c1[nH]cnc2c1c(-c1ccc(OCCCN3CCOCC3)cc1)cn2-c1ccccc1 [Ex-27]
IC50 [1]: 0.00631 µM
fold selectivity for MAP4K4 over GCK/MAP4K2 [2]: (31) fold
IC50 [2]: 0.2 µM
fold selectivity for MAP4K4 over GSK3β [3]: (5011) fold
IC50 [3]: 31.6 µM
fold selectivity for MAP4K4 over ABL1 [4]: (501) fold
IC50 [4]: 3.16 µM
IC50 [5, 15]: ≤ 0.1 µM
IC50 [5, 16]: 0.00631 µM
IC50 [6]: 0.01 µM
fold selectivity for MAP4K4 over GLK/MAP4K3 [7]: (251) fold
IC50 [7]: 1.58 µM
fold selectivity for MAP4K4 over Aurora B [8]: (1584) fold
IC50 [8]: 10 µM
fold selectivity for MAP4K4 over KHS/MAP4K5 [9]: (6) fold
IC50 [9]: 0.0398 µM
fold selectivity for MAP4K4 over FLT3 [10]: (1258) fold
IC50 [10]: 7.94 µM
fold selectivity for MAP4K4 over MLK1/MAP3K9 [11]: (13) fold
IC50 [11]: 0.0794 µM
fold selectivity for MAP4K4 over VEGFR [12]: (125) fold
pIC50 VEGFR [12]: 6.1

CC(C)(O)CCOc1ccc(-c2cn(-c3ccccc3)c3nc[nH]c(=O)c23)cc1 [Ex-40, 5-(4-(3-hydroxy-3-methylbutoxy)phenyl)-7-phenyl-3,7-dihydro-4H-pyrrolo[2,3-d]pyrimidin-4-one]
EC50 [13]: < 1 µM
IC50 [5, 15]: ≤ 0.1 µM

COc1cccc(-c2cn(-c3ccccc3)c3nc[nH]c(=O)c23)c1 [Ex-22]
fold selectivity for MAP4K4 over MLK3/MAP3K11 [14]: (199) fold
IC50 ([14]; read-out: pIC50 MLK3/MAP3K11 (converted)): 31.6 µM
IC50 [1]: 0.00661 µM
fold selectivity for MAP4K4 over GCK/MAP4K2 [2]: (50) fold
IC50 [2]: 7.94 µM
fold selectivity for MAP4K4 over GSK3β [3]: (199) fold
IC50 [3]: 31.6 µM
fold selectivity for MAP4K4 over ABL1 [4]: (199) fold
IC50 [4]: 31.6 µM
IC50 [5, 15]: 0.1 to 1 µM
IC50 [5, 16]: 0.158 µM
IC50 [6]: 0.2 µM
fold selectivity for MAP4K4 over GLK/MAP4K3 [7]: (199) fold
IC50 [7]: 31.6 µM
fold selectivity for MAP4K4 over Aurora B [8]: (199) fold
IC50 [8]: 31.6 µM
fold selectivity for MAP4K4 over KHS/MAP4K5 [9]: (199) fold
IC50 [9]: 0.437 µM
fold selectivity for MAP4K4 over FLT3 [10]: (199) fold
IC50 [10]: 31.6 µM
fold selectivity for MAP4K4 over MLK1/MAP3K9 [11]: (25) fold
IC50 [11]: 3.98 µM
fold selectivity for MAP4K4 over VEGFR [12]: (79) fold
pIC50 VEGFR [12]: 4.9

CC(C)(O)CCOc1ccc(-c2cn(-c3ccccc3)c3nc[nH]c(=O)c23)cc1F [Ex-123]
EC50 [13]: < 1 µM

CC(C)(O)CCOc1ccc(-c2cn(-c3ccccc3)c3nc[nH]c(=O)c23)c(F)c1 [Ex-107, 5-(2-fluoro-4-(3-hydroxy-3-methylbutoxy)phenyl)-7-phenyl-3,7-dihydro-4H-pyrrolo[2,3-d]pyrimidin-4-one]
EC50 [13]: < 1 µM

O=c1[nH]cnc2c1c(-c1ccc(Cn3ccnc3)cc1)cn2-c1ccccc1 [Ex-13]
IC50 [5, 15]: ≤ 0.1 µM

O=C(O)c1cccc(-c2cn(-c3ccccc3)c3c(=O)[nH]cnc23)c1 [Ex-101, 3-(4-Oxo-5-phenyl-4,5-dihydro-3H-pyrrolo[3,2-d]pyrimidin-7-yl)-benzoic acid]
IC50 [5, 15]: > 1 µM

O=c1[nH]cnc2c(-c3ccc(OCC4CCNC4)cc3)cn(-c3ccccc3)c12 (stereo not shown) [Ex-94, 5-Phenyl-7-[4-(pyrrolidin-3-ylmethoxy)-phenyl]-3,5-dihydro-pyrrolo[3,2-d]pyrimidin-4-one]
IC50 [5, 15]: > 1 µM

CN1CCN(CCCOc2ccc(-c3cn(-c4ccccc4)c4nc[nH]c(=O)c34)cc2)CC1 [Ex-35]
IC50 [5, 15]: ≤ 0.1 µM

CN(C)CCCOc1ccc(-c2cn(-c3ccccc3)c3nc[nH]c(=O)c23)cc1 [Ex-26]
IC50 [5, 15]: ≤ 0.1 µM

CN(C)CCNC(=O)c1cccc(-c2cn(-c3ccccc3)c3nc[nH]c(=O)c23)c1 [Ex-21]
IC50 [5, 15]: > 1 µM

CN1CCN(CC(=O)Nc2ccc(-c3cn(-c4cccc(F)c4)c4nc[nH]c(=O)c34)cc2)CC1 [Ex-18]
IC50 [5, 15]: ≤ 0.1 µM

O=c1[nH]cnc2c1c(-c1cccc(CO)c1)cn2-c1ccccc1 [Ex-45]
IC50 [5, 15]: ≤ 0.1 µM

O=C1N(CCO)CCN1c1ccc(-c2cn(-c3ccccc3)c3nc[nH]c(=O)c23)cc1 [Ex-55, 5-{4-[3-(2-Hydroxy-ethyl)-2-oxo-imidazolidin-1-yl]-phenyl}-7-phenyl-3,7-dihydro-pyrrolo[2,3-d]pyrimidin-4-one]
IC50 [5, 15]: ≤ 0.1 µM

CC(C)(O)COc1ccc(-c2cn(-c3ccccc3)c3nc[nH]c(=O)c23)cc1 [Ex-64]
IC50 [5, 15]: ≤ 0.1 µM

CC(C)(O)CCOc1ccc(-c2cn(-c3ccccc3)c3nc[nH]c(=O)c23)cc1C#N [Ex-128]
EC50 [13]: < 1 µM

CC(C)(C)OC(=O)NCCOc1ccc(-c2cn(-c3ccccc3)c3nc[nH]c(=O)c23)cc1 [Ex-63]
IC50 [5, 15]: 0.1 to 1 µM

O=C(O)Cc1ccc(-c2cn(-c3ccccc3)c3nc[nH]c(=O)c23)cc1 [Ex-82, [4-(4-Oxo-7-phenyl-4,7-dihydro-3H-pyrrolo[2,3-d]pyrimidin-5-yl)-phenyl]-acetic acid]
IC50 [5, 15]: ≤ 0.1 µM

COc1ccc(-c2cn(-c3ccccc3)c3nc[nH]c(=O)c23)cc1 [Ex-23]
IC50 [5, 15]: ≤ 0.1 µM

O=c1[nH]cnc2c1c(-c1cccc(OCCO)c1)cn2-c1ccccc1 [Ex-47]
IC50 [5, 15]: 0.1 to 1 µM

O=C(NCCO)c1cccc(-c2cn(-c3ccccc3)c3nc[nH]c(=O)c23)c1 [Ex-44]
IC50 [5, 15]: > 1 µM

O=C1COCCN1CC(O)COc1ccc(-c2cn(-c3ccccc3)c3nc[nH]c(=O)c23)cc1 (stereo not shown) [Ex-38]
IC50 [5, 15]: ≤ 0.1 µM

O=C(O)c1ccc(-c2cn(-c3ccccc3)c3c(=O)[nH]cnc23)cc1 [Ex-102]
IC50 [5, 15]: 0.1 to 1 µM

CCOC(=O)c1cccc(-c2cn(-c3ccccc3)c3c(=O)[nH]cnc23)c1 [Ex-96, 3-(4-Oxo-5-phenyl-4,5-dihydro-3H-pyrrolo[3,2-d]pyrimidin-7-yl)-benzoic acid ethyl ester]
IC50 [5, 15]: > 1 µM

O=C(O)c1ccc(-n2cc(-c3ccccc3)c3c(=O)[nH]cnc32)cc1 [Ex-1, 4-(4-Oxo-5-phenyl-3,4-dihydro-pyrrolo[2,3-d]pyrimidin-7-yl)-benzoic acid]
IC50 [5, 15]: 0.1 to 1 µM

CS(=O)(=O)c1ccc(-n2cc(-c3ccccc3)c3c(=O)[nH]cnc32)cc1 [Ex-3]
IC50 [5, 15]: > 1 µM

N#Cc1ccc(-c2cn(-c3ccccc3)c3c(=O)[nH]cnc23)cc1 [Ex-99]
IC50 [5, 15]: 0.1 to 1 µM

N#Cc1ccc(-c2cn(-c3ccccc3)c3nc[nH]c(=O)c23)cc1 [Ex-11, 4-(4-oxo-7-phenyl-4,7-dihydro-3H-pyrrolo[2,3-d]pyrimidin-5-yl)-benzonitrile]
IC50 [5, 15]: ≤ 0.1 µM

CN1CCC(COc2ccc(-c3cn(-c4ccccc4)c4c(=O)[nH]cnc34)cc2)C1 (stereo not shown) [Ex-95, 7-[4-(1-Methyl-pyrrolidin-3-ylmethoxy)-phenyl]-5-phenyl-3,5-dihydro-pyrrolo[3,2-d]pyrimidin-4-one]
IC50 [5, 15]: > 1 µM

CNC(=O)c1ccc(-n2cc(-c3ccccc3)c3c(=O)[nH]cnc32)cc1 [Ex-5, N-Methyl-4-(4-oxo-5-phenyl-3,4-dihydro-pyrrolo[2,3-d]pyrimidin-7-yl)-benzamide]
IC50 [5, 15]: > 1 µM

O=c1[nH]cnc2c1c(-c1ccc(OCC(O)CN3CCOCC3)cc1)cn2-c1cccc(F)c1 (stereo not shown) [Ex-43]
IC50 [5, 15]: ≤ 0.1 µM
